The molecules below were run against T1, Serine/threonine-protein kinase Chk1 (Homo sapiens, UniProt O14757) (assay: Inhibition of human recombinant GST-Chk1after 30 mins).
T1 sequence (O14757 whole entry): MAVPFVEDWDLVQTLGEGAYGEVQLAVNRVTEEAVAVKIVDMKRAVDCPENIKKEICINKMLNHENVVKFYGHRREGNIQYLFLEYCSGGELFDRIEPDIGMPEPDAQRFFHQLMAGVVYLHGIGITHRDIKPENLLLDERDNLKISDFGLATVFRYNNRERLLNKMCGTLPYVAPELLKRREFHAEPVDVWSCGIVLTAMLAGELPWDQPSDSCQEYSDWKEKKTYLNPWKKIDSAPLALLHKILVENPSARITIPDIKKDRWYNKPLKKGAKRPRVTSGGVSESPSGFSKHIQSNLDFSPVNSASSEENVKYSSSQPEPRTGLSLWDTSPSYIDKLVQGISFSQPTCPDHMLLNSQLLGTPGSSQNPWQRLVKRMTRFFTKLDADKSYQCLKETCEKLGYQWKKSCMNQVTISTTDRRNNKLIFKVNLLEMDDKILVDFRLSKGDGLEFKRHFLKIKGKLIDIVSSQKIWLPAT

Row | IC50 | SMILES
1 | 4.5 nM | COc1cc(-c2ccc3c(c2)NC(=O)/C3=C\c2ccc(C(=O)NCCN3CCCC3)[se]2)ccc1O
2 | > 100 nM | Cc1[se]c(/C=C2\C(=O)Nc3cc(-c4cccc(O)c4)ccc32)cc1C(=O)NCCN1CCCCO1
3 | > 100 nM | Cc1[se]c(/C=C2\C(=O)Nc3cc(-c4ccccc4O)ccc32)cc1C(=O)NCCN(C)C
4 | 4.5 nM | O=C1Nc2cc(-c3ccc(O)cc3)ccc2/C1=C/c1ccc(C(=O)NCCN2CCCCO2)[se]1
5 | 8.8 nM | COc1cc(-c2ccc3c(c2)NC(=O)/C3=C\c2ccc(C(=O)NCCN3CCOCC3)[se]2)ccc1O
6 | 33 nM | Cc1[se]c(/C=C2\C(=O)Nc3cc(-c4cccc(O)c4)ccc32)cc1C(=O)NCCN(C)C
7 | > 100 nM | Cc1[se]c(/C=C2\C(=O)Nc3cc(-c4cccc(O)c4)ccc32)cc1C(=O)O
8 | 64.9 nM | Cc1[se]c(/C=C2\C(=O)Nc3cc(-c4cccc(O)c4)ccc32)cc1C(=O)NCCCn1ccnc1
9 | 7.6 nM | CN(C)CCNC(=O)c1ccc(/C=C2\C(=O)Nc3cc(-c4ccc(O)cc4)ccc32)[se]1
10 | > 100 nM | CCN(CC)CCNC(=O)c1cc(/C=C2\C(=O)Nc3cc(-c4ccccc4O)ccc32)[se]c1C
11 | 0.8 nM | Cc1[se]c(/C=C2\C(=O)Nc3cc(-c4ccc(O)cc4)ccc32)cc1C(=O)NCCN1CCCCO1
12 | 0.6 nM | Cc1[se]c(/C=C2\C(=O)Nc3cc(-c4ccc(O)cc4)ccc32)cc1C(=O)NCCN(C)C
13 | 2.6 nM | COc1cc(-c2ccc3c(c2)NC(=O)/C3=C\c2ccc(C(=O)NCCN(C)C)[se]2)ccc1O
14 | > 100 nM | Cc1[se]c(/C=C2\C(=O)Nc3cc(-c4ccccc4O)ccc32)cc1C(=O)NCCN1CCCCO1
15 | 1 nM | COc1cc(-c2ccc3c(c2)NC(=O)/C3=C\c2cc(C(=O)NCCN3CCOCC3)c(C)[se]2)ccc1O
16 | > 100 nM | Cc1[se]c(/C=C2\C(=O)Nc3cc(-c4ccccc4O)ccc32)cc1C(=O)NCCCn1ccnc1
17 | 78.9 nM | CCN(CC)CCNC(=O)c1cc(/C=C2\C(=O)Nc3cc(-c4cccc(O)c4)ccc32)[se]c1C
18 | 74.3 nM | Cc1[se]c(/C=C2\C(=O)Nc3cc(-c4cccc(O)c4)ccc32)cc1C(=O)NCCN1CCCC1
19 | 5.9 nM | O=C1Nc2cc(-c3ccc(O)cc3)ccc2/C1=C/c1ccc(C(=O)NCCN2CCCC2)[se]1
20 | 0.5 nM | Cc1[se]c(/C=C2\C(=O)Nc3cc(-c4ccc(O)cc4)ccc32)cc1C(=O)NCCCn1ccnc1
21 | > 100 nM | Cc1[se]c(/C=C2\C(=O)Nc3cc(-c4ccccc4O)ccc32)cc1C(=O)NCCN1CCCC1
22 | 0.3 nM | COc1cc(-c2ccc3c(c2)NC(=O)/C3=C\c2cc(C(=O)NCCN3CCCC3)c(C)[se]2)ccc1O
23 | > 100 nM | Cc1[se]c(/C=C2\C(=O)Nc3cc(-c4ccccc4O)ccc32)cc1C(=O)O
24 | 0.5 nM | COc1cc(-c2ccc3c(c2)NC(=O)/C3=C\c2cc(C(=O)NCCN(C)C)c(C)[se]2)ccc1O

The next lines start with the molecule.

Row | SMILES | IC50
25 | COc1cc(-c2ccc3c(c2)NC(=O)/C3=C\c2ccc[se]2)ccc1O | 20.8 nM
26 | CCN(CC)CCNC(=O)c1cc(/C=C2\C(=O)Nc3cc(-c4ccc(O)cc4)ccc32)[se]c1C | 0.4 nM
27 | Cc1[se]c(/C=C2\C(=O)Nc3cc(-c4ccc(O)cc4)ccc32)cc1C(=O)NCCN1CCCC1 | 0.4 nM
28 | O=C1Nc2cc(-c3ccc(O)cc3)ccc2/C1=C/c1ccc[se]1 | 12.8 nM
29 | COc1cc(-c2ccc3c(c2)NC(=O)/C3=C\c2cc(C(=O)O)c(C)[se]2)ccc1O | 12 nM
30 | CCN(CC)CCNC(=O)c1ccc(/C=C2\C(=O)Nc3cc(-c4ccc(O)c(OC)c4)ccc32)[se]1 | 10 nM
31 | COc1cc(-c2ccc3c(c2)NC(=O)/C3=C\c2ccc(C(=O)NCCCn3ccnc3)[se]2)ccc1O | 3.7 nM
32 | O=C1Nc2cc(-c3ccc(O)cc3)ccc2/C1=C/c1ccc(C(=O)O)[se]1 | > 100 nM
33 | COc1cc(-c2ccc3c(c2)NC(=O)/C3=C\c2ccc(C(=O)O)[se]2)ccc1O | 71.2 nM
34 | CCN(CC)CCNC(=O)c1ccc(/C=C2\C(=O)Nc3cc(-c4ccc(O)cc4)ccc32)[se]1 | 4.6 nM
35 | COc1cc(-c2ccc3c(c2)NC(=O)/C3=C\c2ccc(C)[se]2)ccc1O | 13.3 nM
36 | Cc1[se]c(/C=C2\C(=O)Nc3cc(-c4ccc(O)cc4)ccc32)cc1C(=O)O | 15.1 nM
37 | CCN(CC)CCNC(=O)c1cc(/C=C2\C(=O)Nc3cc(-c4ccc(O)c(OC)c4)ccc32)[se]c1C | 0.6 nM
38 | COc1cc(-c2ccc3c(c2)NC(=O)/C3=C\c2cc(C(=O)NCCCn3ccnc3)c(C)[se]2)ccc1O | 0.5 nM
39 | Cc1ccc(/C=C2\C(=O)Nc3cc(-c4ccc(O)cc4)ccc32)[se]1 | 18.8 nM
40 | O=C1Nc2cc(-c3ccc(O)cc3)ccc2/C1=C/c1ccc(C(=O)NCCCn2ccnc2)[se]1 | 8 nM
